Earlier results in PubChem BioAssay AID1259409 (Chemical Carcinogenesis Research Information System (CCRIS), 2018).
Where “and” joins values, the source holds several entries; their conditions need not be identical. Equal entries are not always repeated.

Test system: rodent chemically induced tumor inhibition, incidence and multiplicity
Assay: CCRIS tumor inhibitor studies

CC1=C(/C=C/C(C)=C\C=C\C(C)=C\C(=O)O)C(C)(C)CCC1
outcome (Carcinogen: 4-(Methylnitrosamino)-1-(3-pyridyl)-1-butanone [64091-91-4] (NNK), Dose [Inhibitor]: 0, 7.5, 15, 30 mg/kg in diet for 17 wks, study duration 17 wks, Dose [Inhibitor]: 0, 7.5, 15, 30 mg/kg in diet for 17 wks, study duration 17 wks, Route [Inhibitor]: Oral, Species: Mouse, Strain/Sex: A/J/Male, Target Tissue: Type of Lesion: Lung, Dose [Carcinogen]: 100 mg NNK/kg bw once at 8 wks of age, study duration 17 wks): 14/14 (100%); 13/14 (93%); 14/14 (100%); 11/13 (85%) | tumour outcome (control, treated, inhibition, significance) (Carcinogen: N-METHYL-N-NITROSOUREA, 684-93-5, Dose [Inhibitor]: 0, 3.3 UG/KG OF DIET FOR 147 D (STUDY DURATION: 150 D), Route [Inhibitor]: ORAL, Species: RAT, Strain/Sex: SPRAGUE-DAWLEY/FEMALE, Target Tissue: Type of Lesion: MAMMARY GLAND: ADENOCARCINOMA, Dose [Carcinogen]: 50 MG/KG BW ONCE 3 D BEFORE INITIAL INHIBITOR DOSE, Promoter: NONE USED): 25/25 (100%), 25/25 (100%), 0%, not significant | tumour outcome (control, treated, inhibition, significance) (Carcinogen: N-METHYL-N-NITROSOUREA, 684-93-5, Dose [Inhibitor]: 0, 10 UG/KG OF DIET FOR 147 D (STUDY DURATION: 150 D), Route [Inhibitor]: ORAL, Species: RAT, Strain/Sex: SPRAGUE-DAWLEY/FEMALE, Target Tissue: Type of Lesion: MAMMARY GLAND: ADENOCARCINOMA, Dose [Carcinogen]: 50 MG/KG BW ONCE 3 D BEFORE INITIAL INHIBITOR DOSE, Promoter: NONE USED): 25/25 (100%), 25/25 (100%), 0%, not significant | tumour outcome (control, treated, inhibition, significance) (Carcinogen: N-METHYL-N-NITROSOUREA, 684-93-5, Dose [Inhibitor]: 0, 50 MG/KG OF DIET BEGINNING 1 WK PRIOR TO CARCINOGEN DOSE (STUDY DURATION: 14 MO), Route [Inhibitor]: ORAL, Species: RAT, Strain/Sex: WISTAR-UNILEVER/MALE, Target Tissue: Type of Lesion: PROSTATE: ADENOCARCINOMA, Dose [Carcinogen]: 30 MG/KG BW ONCE ADMINISTERED TO RATS PRETREATED WITH 50 MG OF CYPROTERONE ACETATE BY GAVAGE FOR 21 CONSECUTIVE DAYS THE, Promoter: TESTOSTERONE, 58-22-0): 22/34 (65%), 8/40 (20%), 70%, p<0.001 | tumour outcome (control, treated, inhibition, significance) (Carcinogen: N-METHYL-N-NITROSOUREA, 684-93-5, Dose [Inhibitor]: 0, 60 MG/KG OF DIET FOR 147 D (STUDY DURATION: 150 D), Route [Inhibitor]: ORAL, Species: RAT, Strain/Sex: SPRAGUE-DAWLEY/FEMALE, Target Tissue: Type of Lesion: MAMMARY GLAND: ADENOCARCINOMA, Dose [Carcinogen]: 50 MG/KG BW ONCE 3 D BEFORE INITIAL INHIBITOR DOSE, Promoter: NONE USED): 25/25 (100%), 24/25 (96%), 4%, not significant | tumour outcome (control, treated, inhibition, significance) (Carcinogen: N-METHYL-N-NITROSOUREA, 684-93-5, Dose [Inhibitor]: 0, 60 MG/KG OF DIET FOR DURATION OF STUDY BEGINNING 1 WK POST CARCINOGEN DOSE (STUDY DURATION: 5 MO), Route [Inhibitor]: ORAL, Species: RAT, Strain/Sex: SPRAGUE-DAWLEY/FEMALE, Target Tissue: Type of Lesion: MAMMARY GLAND: TUMOR, Dose [Carcinogen]: 50 MG/KG BW ONCE, Promoter: NONE USED): 23/24 (96%), 9/12 (75%), 22%, p=0.1 and 29/30 (97%), 24/30 (80%), 18%, p=0.1 | tumour outcome (control, treated, inhibition, significance) (Carcinogen: N-METHYL-N-NITROSOUREA, 684-93-5, Dose [Inhibitor]: 0, 100 MG/KG OF DIET BEGINNING 1 WK PRIOR TO CARCINOGEN DOSE (STUDY DURATION: 14 MO), Route [Inhibitor]: ORAL, Species: RAT, Strain/Sex: WISTAR-UNILEVER/MALE, Target Tissue: Type of Lesion: PROSTATE: ADENOCARCINOMA, Dose [Carcinogen]: 30 MG/KG BW ONCE ADMINISTERED TO RATS PRETREATED WITH 50 MG OF CYPROTERONE ACETATE BY GAVAGE FOR 21 CONSECUTIVE DAYS THE, Promoter: TESTOSTERONE, 58-22-0): 22/34 (65%), 7/38 (18%), 72%, p<0.001 | tumour outcome (control, treated, inhibition, significance) (Carcinogen: N-METHYL-NITROSOUREA [684-93-5], Dose [Inhibitor]: 60 MG/KG DIET BEGINNING 3 D POST-CARCINOGEN DOSE (STUDY DURATION: 150 D), Route [Inhibitor]: ORAL, Species: RAT, Strain/Sex: SPRAGUE-DAWLEY/FEMALE, Target Tissue: Type of Lesion: MAMMARY GLAND: ADENOCARCINOMA, Dose [Carcinogen]: 50 MG/KG BW ONCE AT 50 D OF AGE): 25/25 (100%); 24/25 (96%), 4%, not significant | tumour outcome (control, treated, inhibition, significance) (Carcinogen: N-NITROSO-N-METHYLUREA, 684-93-5, Dose [Inhibitor]: 0, 60 MG/KG OF DIET FOR 3 MO BEGINNING 1 WK POST CARCINOGEN DOSE (STUDY DURATION: 100 D), Route [Inhibitor]: ORAL, Species: RAT, Strain/Sex: SPRAGUE-DAWLEY/FEMALE, Target Tissue: Type of Lesion: MAMMARY GLAND: TUMOR, Dose [Carcinogen]: 50 MG/KG BW ONCE, Promoter: NONE USED): 100%, 58%, 42%, p<0.002 | tumour outcome (control, treated, inhibition, significance) (Carcinogen: N-NITROSO-N-METHYLUREA, 684-93-5, Dose [Inhibitor]: 0, 60 MG/KG OF DIET FOR 4.5 MO BEGINNING 1 WK POST CARCINOGEN DOSE (STUDY DURATION: 100 D), Route [Inhibitor]: ORAL, Species: RAT, Strain/Sex: SPRAGUE-DAWLEY/FEMALE, Target Tissue: Type of Lesion: MAMMARY GLAND: TUMOR, Dose [Carcinogen]: 50 MG/KG BW ONCE, Promoter: NONE USED): 96%, 75%, 22%, not significant | tumour outcome (control, treated, inhibition, significance) (Carcinogen: N-NITROSO-N-METHYLUREA, 684-93-5, Dose [Inhibitor]: 0, 120 MG/KG OF DIET FOR 3 MO BEGINNING 1 WK POST CARCINOGEN DOSE (STUDY DURATION: 100 D), Route [Inhibitor]: ORAL, Species: RAT, Strain/Sex: SPRAGUE-DAWLEY/FEMALE, Target Tissue: Type of Lesion: MAMMARY GLAND: TUMOR, Dose [Carcinogen]: 50 MG/KG BW ONCE, Promoter: NONE USED): 100%, 25%, 75%, p<0.001 | tumour outcome (control, treated, inhibition, significance) (Carcinogen: N-NITROSO-N-METHYLUREA, 684-93-5, Dose [Inhibitor]: 0, 120 MG/KG OF DIET FOR 4.5 MO BEGINNING 1 WK POST CARCINOGEN DOSE (STUDY DURATION: 100 D), Route [Inhibitor]: ORAL, Species: RAT, Strain/Sex: SPRAGUE-DAWLEY/FEMALE, Target Tissue: Type of Lesion: MAMMARY GLAND: TUMOR, Dose [Carcinogen]: 50 MG/KG BW ONCE, Promoter: NONE USED): 96%, 42%, 56%, p<0.001

C[C@H]1CC[C@@]2(C)C(=CC[C@@H]3[C@@H]2CC[C@]2(C)C(=O)CC[C@@H]32)C1
tumour outcome (control, treated, inhibition, significance) (Carcinogen: 7,12-DIMETHYLBENZ[A]ANTHRACENE, 57-97-6, Dose [Inhibitor]: 100 UG IN 0.2 ML ACETONE 1 HR BEFORE EACH WEEKLY APPLICATION OF DMBA (STUDY DURATION: 290 D), Route [Inhibitor]: DERMAL, Species: MOUSE, Strain/Sex: CD-1/FEMALE, Target Tissue: Type of Lesion: SKIN: CARCINOMA, Dose [Carcinogen]: 200 NMOL AT 6-7 WK OF AGE THEN 100 NMOL IN 0.2 ML ACETONE 1 WK BEGINNING 2 WK LATER, Promoter: NONE USED): 14/28 (50%), 1/28 (4%), 92%, p<0.001 | outcome (Carcinogen: 7,12-DIMETHYLBENZ[A]ANTHRACENE, 57-97-6, Dose [Inhibitor]: 400 UG IN 0.2 ML ACETONE 1 HR BEFORE EACH WEEKLY APPLICATION OF DMBA (STUDY DURATION: 290 D), Route [Inhibitor]: DERMAL, Species: MOUSE, Strain/Sex: CD-1/FEMALE, Target Tissue: Type of Lesion: SKIN: CARCINOMA, Dose [Carcinogen]: 200 NMOL AT 6-7 WK OF AGE THEN 100 NMOL IN 0.2 ML ACETONE 1/WK BEGINNING 2 WK LATER, Promoter: NONE USED): 14/28 (50%), 3/29 (10), 80%, p<0.001

NCCc1cc(O)c(O)cc1O
tumour outcome (control, treated, inhibition, significance) (Carcinogen: AZOXYMETHANE, 25843-45-2, Dose [Inhibitor]: 0, 42 MG/KG BW IN 0.9% SALINE TWICE ON FIRST DAY THEN 0, 105 MG/KG 1/2 WK FOR DURATION OF STUDY (STUDY DURATION: 35 WK), Dose [Inhibitor]: 0, 42 MG/KG BW IN 0.9% SALINE TWICE ON FIRST DAY THEN 0, 105 MG/KG 1/2 WK FOR DURATION OF STUDY (STUDY DURATION: 35 WK), Route [Inhibitor]: INTRAPERITONEAL, Species: RAT, Strain/Sex: WISTAR/MALE, Target Tissue: Type of Lesion: COLON: TUMOR, Dose [Carcinogen]: 7.4 MG/KG BW IN 0.9% SALINE 1/WK FOR 10 WK, Promoter: NONE USED): 14/20 (70%), 4/17 (24%), 66%, p<0.02 | tumour outcome (control, treated, inhibition, significance) (Carcinogen: N-METHYL-N'-NITRO-N-NITROSOGUANIDINE, 70-25-7, Dose [Inhibitor]: 0, 42 MG/KG 2/24 HR BEGINNING POST CARCINOGEN TREATMENT THEN 1 WK LATER 105 MG/KG 1/2 WK (STUDY DURATION: 52 WK), Route [Inhibitor]: INTRAPERITONEAL, Species: RAT, Strain/Sex: WISTAR/MALE, Target Tissue: Type of Lesion: STOMACH: ADENOCARCINOMA, Dose [Carcinogen]: 75 UG/ML IN DRINKING WATER FOR 25 WK, Promoter: NONE USED): 16/20 (80%), 9/20 (45%), 44%, p<0.05
